Experimental data as given in ChEMBL document CHEMBL3867453, “Total Synthesis of (±)-Isoperbergins and Correction of the Chemical Structure of Perbergin” (2016).
≈ marks a conversion by molar mass, not a printed value.

Assays:
Type in all cases: functional
[1] = tested on: Mycolicibacterium smegmatis; test: Antibacterial activity against Mycobacterium smegmatis after 48 hrs by MTT based microdilution assay
[2] = tested on: Rhodococcus fascians; test: Antibacterial activity against Rhodococcus fascians after 24 hrs by MTT based microdilution assay; conditions: Rhodococcoides fascians
[3] = tested on: Pseudomonas aeruginosa; test: Antibacterial activity against Pseudomonas aeruginosa after 24 hrs by MTT based microdilution assay
[4] = tested on: Staphylococcus aureus; test: Antibacterial activity against Staphylococcus aureus after 24 hrs by MTT based microdilution assay
[5] = tested on: Escherichia coli; test: Antibacterial activity against Escherichia coli after 24 hrs by MTT based microdilution assay

Compound | MIC [1] | MIC [2] | MIC [3] | MIC [4] | MIC [5]
CC1(C)S[C@@H]2[C@H](NC(=O)[C@H](N)c3ccccc3)C(=O)N2[C@H]1C(=O)O [AMPICILLIN] | > 50 µg/mL | 20 µg/mL (≈ 57.2 µM) | < 5 µg/mL | > 50 µg/mL | < 5 µg/mL
COc1ccc(C2COc3cc(O)cc(O)c3C2=O)c(O)c1O (racemic) | > 50 µg/mL | > 50 µg/mL | > 50 µg/mL | > 50 µg/mL | > 50 µg/mL
COc1ccc(C2COc3c(C/C=C(/C)CCC=C(C)C)c(O)cc(O)c3C2=O)c(O)c1O (racemic) | 5 µg/mL (≈ 11 µM) | 12.5 µg/mL (≈ 27.5 µM) | > 50 µg/mL | 5 µg/mL (≈ 11 µM) | > 50 µg/mL

Next, values leading:

MIC [1] | MIC [2] | MIC [3] | MIC [4] | MIC [5] | Compound
5 µg/mL (≈ 11 µM) | 12.5 µg/mL (≈ 27.5 µM) | > 50 µg/mL | 5 µg/mL (≈ 11 µM) | > 50 µg/mL | COc1ccc(C2COc3c(C/C=C(\C)CCC=C(C)C)c(O)cc(O)c3C2=O)c(O)c1O (racemic)
2.5 µg/mL (≈ 4.63 µM) | 50 µg/mL (≈ 92.7 µM) | 50 µg/mL (≈ 92.7 µM) | 30 µg/mL (≈ 55.6 µM) | > 50 µg/mL | CN[C@@H]1[C@@H](O[C@H]2O[C@H](CO)[C@@H](N)[C@H](O)[C@H]2O)O[C@H]2C[C@@H](N)[C@@H](O[C@H]3[C@H](O)[C@@H](O)[C@H](N)C[C@@H]3N)O[C@@H]2[C@@H]1O
